Data taken from article PMC5367011, “Sterols from Thai Marine Sponge Petrosia (Strongylophora) sp. and Their Cytotoxicity” (Marine Drugs, 2017).

Legend:
Type in all cases: cell-based
A549 (human lung cancer) = assay: Cytotoxicity, MTT assay, A549; conditions: for IC50: mean ± S.D. (n = 3), MTT assay
Description: (§1) In our study, several compounds (1–4, 6–8, 10, and 12–16) were evaluated for their cytotoxicity using a panel of human cancer cell lines, including MOLT-3 (acute lymphoblastic leukemia), HepG2 (hepatocarcinoma), A549 (human lung cancer), HuCCA-1 (human chlolangiocarcinoma), HeLa (cervical carcinoma), and MDA-MB-231 (hormone-independent breast cancer) as well as a normal cell line, MRC-5 (normal human embryonic lung fibroblasts).
(§2) The cytotoxic activity toward a panel of mammalian cancer cell lines (HepG2, A549, HuCCA-1, HeLa, MDA-MB-231) were tested using the 3-(4,5-dimethylthiazol-2-yl)-2,5-diphenyltetrazolium bromide (MTT) assay, while the activity toward MOLT-3 cancer cell line was performed by the 2,3-bis-(2-methoxy-4-nitro-5-sulphenyl)-(2H)-tetrazolium-5-carboxanilide (XTT) assay. Etoposide and doxorubicin were used as positive controls (Table 4).

[1] = tested on: HuCCA-1 (human chlolangiocarcinoma); assay: Cytotoxicity, MTT assay, HuCCA-1; conditions: for IC50: HuCC-A1, mean ± S.D. (n = 3), MTT assay
Description: as §1, §2

[2] = tested on: MOLT-3 (acute lymphoblastic leukemia); assay: Cytotoxicity, XTT assay, MOLT-3; conditions: Homo sapiens; for IC50: mean ± S.D. (n = 3), XTT assay
Description: as §1, §2

HepG2 (hepatocarcinoma) = assay: Cytotoxicity, MTT assay, HepG2; conditions: Homo sapiens; for IC50: HepG-2, mean ± S.D. (n = 3), MTT assay
Description: as §1, §2

[3] = tested on: HeLa (cervical carcinoma); assay: Cytotoxicity, MTT assay, HeLa; conditions: Homo sapiens, mean ± S.D. (n = 3)
Description: as §1, §2

[4] = tested on: MDA-MB-231 (hormone-independent breast cancer); assay: Cytotoxicity, MTT assay, MDA-MB-231; conditions: Homo sapiens, mean ± S.D. (n = 3)
Description: as §1, §2

[5] = tested on: MRC-5 (normal human embryonic lung fibroblasts); assay: Cytotoxicity toward normal cell line MRC-5; conditions: for IC50: MRC5, MRC-5 normal cell line, mean ± S.D. (n = 3)
Description: as §1

Row | Structure (SMILES) | IC50 (A549 (human lung cancer)) | IC50 [1] | IC50 [2] | IC50 (HepG2 (hepatocarcinoma)) | IC50 [5] | also measured
1 | C[C@@H]1C[C@H]1[C@H](C)C[C@@H](O)[C@@]1([C@H]2CC[C@H]3[C@@H]4CC[C@H]5CC(=O)CC[C@]5(C)[C@H]4C[C@@H](O)[C@]23C)CO1 [Compound 15, aragusterol A] | 37.93 ± 0.07 µM | 37.6 ± 1.4 µM | 12.8 ± 0.98 µM | 7.1 ± 4.76 µM | – | IC50 [3]: 6.11 ± 0.02 µM; IC50 [4]: 18 ± 5.74 µM
2 | COc1cc([C@@H]2c3cc4c(cc3[C@@H](O[C@@H]3O[C@@H]5CO[C@@H](C)O[C@H]5[C@H](O)[C@H]3O)[C@H]3COC(=O)[C@H]23)OCO4)cc(OC)c1O [Etoposide, reference compound] | – | – | 0.07 ± 0.005 µM | 31.5 ± 15.6 µM | – | –
3 | COC1(OC)CC[C@@]2(C)C(CC[C@H]3C4CC[C@H]([C@@](O)(CO)[C@H](O)C[C@@H](C)[C@@H]5C[C@H]5C)[C@@]4(C)[C@H](O)C[C@@H]32)C1 (stereo partly drawn) [Compound 13, 26,27-cyclo-24,27-dimethylcholestan-3,3-dimethoxy-12β,21,20α,22α-tetraol] | 17.9 ± 2.26 µM | 20.8 ± 2.32 µM | 14.9 ± 0.25 µM | 12.5 ± 0.84 µM | 37.7 ± 10.7 µM | –
4 | C[C@H](CC[C@](C)(O)[C@H]1CC[C@H]2[C@@H]3CC[C@H]4CC(=O)CC[C@]4(C)[C@H]3C[C@@H](O)[C@@]21C)[C@H]1C[C@@H]1C [Compound 7, aragusterol B] | 23.6 ± 2 µM | 25.1 ± 2.27 µM | 16.3 ± 18 µM | 26.5 ± 5.32 µM | – | IC50 [3]: 11.23 ± 0.05 µM; IC50 [4]: 27 ± 7.79 µM
5 | CC(CCC(C)(O)[C@H]1CC[C@H]2[C@@H]3[C@H](O)C[C@H]4CC(=O)CC[C@]4(C)[C@H]3C[C@@H](O)[C@]12C)C1CC1C (stereo partly drawn) [Compound 8, xestokerol B] | 32.6 ± 3.64 µM | 103 ± 2.29 µM | – | 18.2 ± 1.86 µM | 90.1 ± 6.88 µM | inhibition at 108.7 µM ([2]; at 108.70 μM): 43%
6 | CC(C)CC=CC(C)(O)C1CCC2C3C(O)CC4CC(=O)CCC4(C)C3CC(O)C21C (stereo not drawn) [Compound 12, 7α,12β,20β-trihydroxycholesta-22E-en-3-one] | 54.3 ± 3.84 µM | 66.1 ± 0.9 µM | 36.6 ± 1.11 µM | 56.5 ± 2.15 µM | 76.9 ± 10.7 µM | –
7 | COc1cccc2c1C(=O)c1c(O)c3c(c(O)c1C2=O)C[C@@](O)(C(=O)CO)C[C@@H]3O[C@H]1C[C@H](N)[C@H](O)[C@H](C)O1 [Doxorubicin, reference compound] | 0.92 ± 0.06 µM | 2.24 ± 0.15 µM | – | 0.55 ± 0.12 µM | – | IC50 [3]: 0.17 ± 0.1 µM; inhibition at 50 µM ([5]; MRC5, MRC-5, at 50.00 μM): 24.9%; IC50 [4]: 1.78 ± 0.54 µM
8 | C[C@H](CC[C@@H](C)[C@H]1CC[C@H]2[C@@H]3C(=O)C=C4C[C@@H](O)CC[C@]4(C)[C@H]3CC[C@]12C)[C@@H]1C[C@H]1C [Compound 10, 7-oxopetrosterol] | 52.1 ± 3.35 µM | – | – | 49.8 ± 3.96 µM | 44.8 ± 1.36 µM | inhibition at 58.69 µM ([1]; HuCC-A1, at 58.69 μM): 44%; inhibition at 29.34 µM ([2]; at 29.34 μM): 2%
9 | C[C@H](CC[C@](C)(O)[C@H]1CC[C@H]2[C@@H]3CC[C@H]4C[C@H](O)CC[C@]4(C)[C@H]3C[C@@H](O)[C@@]21C)[C@@H]1C[C@H]1C [Compound 6, aragusterol I] | 34.7 ± 17.7 µM | 37.06 ± 0.36 µM | 20.1 ± 0.52 µM | 54.9 ± 2.04 µM | 63.4 ± 8.3 µM | –
10 | COC1(OC)CC[C@@]2(C)[C@@H](C[C@@H](O)[C@@H]3[C@@H]2C[C@@H](O)[C@@]2(C)[C@H]3CC[C@@H]2[C@@](C)(O)CC[C@@H](C)[C@@H]2C[C@H]2C)C1 [Compound 4, 26,27-cyclo-24,27-dimethylcholestan-3,3-dimethoxy-7α,12β,20β-triol] | – | – | – | – | – | inhibition at 12.35 µM (A549 (human lung cancer); at 12.35 μM): 2%; inhibition at 12.35 µM ([1]; HuCC-A1, at 12.35 μM): 0%; inhibition at 12.35 µM ([2]; at 12.35 μM): 0%; inhibition at 24.7 µM (HepG2 (hepatocarcinoma); HepG-2, at 24.70 μM): 20.3%; inhibition at 24.7 µM ([5]; MRC5, MRC-5, at 24.70 μM): 5.45%
11 | CC1CC1C(C)CC(O)C(O)(CO)[C@H]1CC[C@H]2[C@@H]3CC[C@H]4CC(=O)CC[C@]4(C)[C@H]3C[C@@H](O)[C@]12C (stereo partly drawn) [Compound 14, xestokerol A] | 23.8 ± 1.87 µM | 34.4 ± 1.83 µM | 24.4 ± 3.11 µM | 41.4 ± 3.24 µM | 65.9 ± 4.54 µM | –
12 | CC(CCC(C)(O)C1CCC2C3C(O)CC4CC(O)CCC4(C)C3CC(O)C21C)C1CC1C (stereo not drawn) [Compound 1, 26,27-cyclo-24,27-dimethylcholestan-3α,7α,12β,20β-tetraol] | 20 ± 1.52 µM | 21.3 ± 1.84 µM | 17.9 ± 0.26 µM | 12.7 ± 1.67 µM | 40.1 ± 1.23 µM | –
13 | C[C@H](CC[C@](C)(O)[C@H]1CC[C@@]2(O)[C@@H]3CC[C@H]4C[C@H](O)CC[C@]4(C)[C@H]3C[C@@H](O)[C@]12C)[C@@H]1C[C@H]1C [Compound 2, 26,27-cyclo-24,27-dimethylcholestan-3α,12β,14,20β-tetraol] | 38.59 ± 0.24 µM | 37.9 ± 3.01 µM | 32.4 ± 1.08 µM | 44.8 ± 3.79 µM | 60.6 ± 12.8 µM | –
14 | COC1(OC)CC[C@@]2(C)C(CC[C@H]3C4CC[C@H]([C@]5([C@@H](O)C[C@@H](C)[C@@H]6C[C@H]6C)CO5)[C@@]4(C)[C@H](O)C[C@@H]32)C1 (stereo partly drawn) [Compound 16, aragusterolketal] | 29.1 ± 8.25 µM | 34.6 ± 3.85 µM | 14.6 ± 0.36 µM | 11.3 ± 9.29 µM | 49.6 ± 6.67 µM | –
15 | C[C@H](CC[C@](C)(O)[C@H]1CCC2[C@@H]3[C@H](O)C=C4C[C@@H](O)CC[C@]4(C)[C@H]3C[C@@H](O)[C@@]21C)[C@@H]1C[C@H]1C (stereo partly drawn) [Compound 3, 26,27-cyclo-24,27-dimethylcholest-5-ene-3β,7α,12β,20β-tetraol] | – | 47.5 ± 6.96 µM | – | 44.6 ± 9.76 µM | – | inhibition at 54.35 µM (A549 (human lung cancer); at 54.35 μM): 9%; inhibition at 27.17 µM ([2]; at 27.17 μM): 8%; inhibition at 54.35 µM ([5]; MRC5, MRC-5, at 54.35 μM): 24.7%
